Laboratory results: paper PMC8164609 (Environmental Science and Pollution Research International, 2021)
Values joined by “and” are separate entries in the source; they are usually repeats but may differ in a detail not shown here. Identical values can stand only once.

Experiments:
[1] = test system: estrogen signaling cascade; set-up: method as in Datta and Lundin-Schiller [2008]; Axon et al. [2012]; details: ref Datta and Lundin-Schiller [2008]; Axon et al. [2012]; cited from earlier work
[2] = test system: MCF-7 cells; test: In vitro micronucleus assay for cytokinesis block; format: cell-based, human; details: 24 h; for Micronuclei per 1000 binucleated cells, Replicates: single replicate values
Experimental: The genotoxicity of EEDCs to MCF-7 cells was assessed by the in vitro micronucleus assay for cytokinesis block. MCF-7 cells were seeded at a density of 5×10^4/well in a 12-well plate in SF medium containing DMEM, 7% charcoal-stripped FBS and 4 mM L-glutamine. These cells were treated with test compounds or the positive control for 24 h. Then, cells were washed twice with PBS, treated with 2 μg/mL cytochalasin B, and incubated for 1.5–2 normal cell cycle lengths (~24 h for MCF-7 cells). Finally, cells were washed with PBS and fixed with 4% paraformaldehyde for 10–15 min (in PBS, pH 6.9). Before staining cells with 5% Giemsa stain for 20 min, plates were washed again with PBS and dried. The frequency of micronuclei per 1000 binucleated cells was counted for each well, and the ratio of micronucleus frequency in treated vs. control cells was defined as fold induction. Cells in mitosis were omitted.

[3] = test system: MCF-7 cells; test: MCF-7 cell proliferation assay (MTT reduction); format: cell-based, human; details: MCF-7 cells, MTT
Experimental: MCF-7 cell line which is sensitive to estrogen (ERα^+) was kindly provided by Dr. Sari Tojkander (Department of Veterinary Biosciences, Faculty of Veterinary Medicine, University of Helsinki). Cells were usually grown in T25 or T75 flasks containing DMEM with or without phenol red and supplemented with 7–10% FBS and 4 mM L-glutamine at 37°C in 5% CO2/95% humidified atmosphere. In order to eliminate the disturbing effect of hormones usually present in FBS, cell culture medium supplemented with commercially available charcoal-stripped FBS and 4 mM L-glutamine (SF medium) was used for experiments.
The effect of EEDCs on the proliferation of MCF-7 cells was assessed as previously described by measuring the capacity of the cells in each well to reduce MTT reagent (Van Meeuwen et al. [2007]). Approximately 5000 cells/200 μL of SF medium containing DMEM without phenol red, 5% charcoal-stripped FBS, and 4 mM L-glutamine were seeded per well in a 96-well cell culture plate. On day 2, cells were treated with the SF medium containing test compounds or vehicle. The final concentration of the solvents DMSO and EtOH was lower than 0.1%. On day 5, the SF medium containing test compounds or vehicle were refreshed. On day 8, cells were washed with PBS twice and then incubated with the SF medium containing 1 mg/mL MTT reagent for 1 h. The ability of MCF-7 cells to reduce MTT was measured at the reference wavelength of 595 nm using a microplate reader (Multiskan Ascent, Thermo Fisher Scientific). All the exposures were in triplicate.
The dose-response curves of test samples were plotted against logarithmic-transformed concentrations.

O=C([O-])C1=NN(c2ccc(S(=O)(=O)[O-])cc2)C(=O)C1N=Nc1ccc(S(=O)(=O)[O-])cc1.[Na+].[Na+].[Na+] (stereo not drawn) [tartrazine]
concentration range of estrogenic effect in vitro [1]: 1 to 10000 pM | Fold (micronucleus frequency treated vs. control) ([2]; 10^−7 M): 2.81 | Micronuclei per 1000 binucleated cells, Average ([2]; 10^−7 M): 29 per 1000 binucleated cells | Micronuclei per 1000 binucleated cells, Replicates ([2]; 10^−7 M): 29 per 1000 binucleated cells and 31 per 1000 binucleated cells and 27 per 1000 binucleated cells | Fold (micronucleus frequency treated vs. control) ([2]; 10^−8 M): 2.10 | Micronuclei per 1000 binucleated cells, Average ([2]; 10^−8 M): 21.67 per 1000 binucleated cells | Micronuclei per 1000 binucleated cells, Replicates ([2]; 10^−8 M): 21 per 1000 binucleated cells and 19 per 1000 binucleated cells and 25 per 1000 binucleated cells | efficacy (maximum induction of cell growth) compared with 17β-estradiol [3]: about one third | EC50 ([3]; hormone-depleted medium, read-out: EC50 (proliferative effect)): 7.46 nM
